In patent EP0406111A1, “Substituted arylamines and heteroarylamines, process for their preparation and pharmaceutical composition containing them” (SOCIETE DE CONSEILS DE […] D'APPLICATIONS SCIENTIFIQUES …, priority 1989, dated 1991):

Columns and labels:
[1] = target: T1, capture de noradrénaline (Rattus norvegicus, UniProt Q63380); assay: Tritiated noradrenaline uptake by crude synaptosomal preparations of rat hypothalamus (Example 37); format: biochemical; conditions: rat hypothalamus synaptosomes, 50 nM tritiated noradrenaline, 10 min at 37°C; read-out: Capture 3H-NA IC₅₀
T1 construct: préparations synaptosomales brutes d'hypothalamus de rats; from tissue; host or cells: male Sprague-Dawley rat hypothalamus, crude synaptosomal fraction
Protocol: Exemple 37 : Mesure de la capture de noradrénaline.
La capture de noradrénaline tritiée (40 Ci/mmole) est évaluée à partir de préparations synaptosomales brutes d'hypothalamus de rats (Sprague-Dawley mâle, 200-300g, Charles River, St Aubin lès Elbeuf, France).
Les animaux sont sacrifiés par décapitation et les cerveaux sont rapidement dégagés. Les hypothalami, disséqués à 0-4°C, sont homogénéisés dans 10 volumes (poids/volume) de saccharose 0,32 M préalablement refroidi, au moyen d'un homogénéiseur type Potter-Elvejhem (clairance 80-130 µm, 800 rpm). Les débris cellulaires et le matériel nucléaire sont éliminés par centrifugation (1000 g, 10 min, 4°C). Le surnageant constitue la fraction synaptosomale brute.
Des aliquots (50 µl) de préparation synaptosomale sont préincubés pendant 5 minutes à 37°C, en présence de pargyline 20 µM, et de concentrations croissantes des composés à tester, dans […] d'un milieu Krebs-Ringer enrichi en glucose (composition en mM : NaCl 103, CaCl₂1, MgCl₂ 1, KH₂PO₄ 1, NaHCO₃ 27, acide ascorbique 0,1, glucose 5,4). A l'issue de cette préincubation, la noradrénaline tritiée (concentration finale 50 nM) est ajoutée sous un volume de 40 µl, et l'incubation est poursuivie à 37°C pendant 10 minutes. La réaction est arrêtée par dilution avec 2 ml de milieu glacé et centrifugation (7000 g, 10 minutes, 4°C). Après lavage du culot de centrifugation dans 1 ml de milieu glacé, l'échantillon est à nouveau centrifugé dans les mêmes conditions. Le culot obtenu est remis en suspension dans 250 µl d'eau distillée par sonication (Sonotrode TC 4C). 100 µl de cette suspension sont utilisés pour la mesure de la radioactivité par scintillation liquide (SL 2000, Kontron intertechniques, Trappes, France) et 50 µl pour la détermination des taux de protéines (selon la méthode de Lowry et al.).
La capture non spécifique est étudiée simultanément à 0°C en présence des différentes concentrations de composé.
La capture spécifique (capture totale - capture à 0°C) est exprimée en fentomoles/mg de protéines.
Pour chaque concentration étudiée la mesure était faite en double, 3 à 5 expériences étant pratiquées à des jours différents (préparations synaptosomales différentes). Pour chaque composé, au moins 4 concentrations ont été étudiées (entre 10⁻⁹ et 10⁻⁶M habituellement).

[2] = target: T2, recapture de la dopamine (Rattus norvegicus, UniProt P23977); assay: Inhibition of (3H)DA reuptake in primary cultured neurons (Example 39); format: cell-based; conditions: for Recapture de (³H)DA nH (nombre de Hill) / IC50: cultured neurons from rat embryos; for IC50: 10⁻⁸M (3H)DA, 10 min at 37°C, read-out: Recapture de (³H)DA IC 50
T2 construct: Cultures primaires de neurones; endogenous in cells; host or cells: primary neurons from substantia nigra of 14-day rat embryos
Source text: Exemple 39 : Etude de l'inhibition de la recapture de la dopamine et de la noradrénaline sur des neurones en culture.
a) Cultures primaires de neurones.
La substance noire, structure riche en cellules dopaminergiques, ou le locus coeruleus, contenant les corps cellulaires noradrénergiques, sont disséqués à partir d'embryons de rats de 14 jours, âge auquel les cellules ont terminé leur mitose. Les cellules sont dissociées mécaniquement dans un milieu sans calcium ni magnésium.
L'ensemencement est réalisé dans des puits prétraités avec de la D-polylysine, à une densité de 150 000 cellules/puits, dans 400µl de milieu de culture composé de 70% de M.E.M.; 25% de Hanks; 5% de Nu-serum décomplémenté; plus 3% de D-glucose (1/20).
Le milieu de culture est renouvelé au tiers tous les trois jours, jusqu'à 9 jours de développement "in vitro", âge auquel les cellules paraissent matures. A cet âge, la culture ne présente pas encore de cellule gliales.
b) Test d'inhibition de la recapture de la dopamine et de la noradrénaline.
On pré-incube les cellules obtenues en a) pendand 15min, à la température ambiante, avec 40µl d'un tampon constitué par le Ringer Phosphate-disodique 5 mM pH=7,6 dont la composition en concentrations finales est la suivante : NaCl 120mM; CaCl₂ 2,6 mM; MgCl₂ 1,3 mM; KCl 5mM; D-glucose 3 mM; Na₂HPO₄5mM.
On incube ensuite pendant 10min à 37°C avec le même tampon en présence de (³H)Da ou de (³H)NA à une concentration finale 10⁻⁸M et une dilution isotopique de 1/5, et de concentrations croissantes en composé à tester dans un volume final de 400µl.
On rince ensuite trois fois rapidement avec 750µl du même tampon à 4°C, ce qui correspond à une durée totale de 10 secondes.
On récupère alors les cellules dans 2 fois 500µl de NaOH 0,5N et on détermine leur radioactivité par comptage avec 4ml de scintillant et 50µl d'acide acétique glacial.
Avant les rinçages, on a prélevé un aliquote de 100µl du milieu d'incubation et on a déterminé la radioactivité libre sur celui-ci par comptage avec 5ml de scintillant.
La recapture spécifique de la (³H)DA ou de (³H)NA est déduite de la différence entre la recapture totale et la diffusion passive pour chacun des composés testés.

T1 sequence (Q63380 1-617): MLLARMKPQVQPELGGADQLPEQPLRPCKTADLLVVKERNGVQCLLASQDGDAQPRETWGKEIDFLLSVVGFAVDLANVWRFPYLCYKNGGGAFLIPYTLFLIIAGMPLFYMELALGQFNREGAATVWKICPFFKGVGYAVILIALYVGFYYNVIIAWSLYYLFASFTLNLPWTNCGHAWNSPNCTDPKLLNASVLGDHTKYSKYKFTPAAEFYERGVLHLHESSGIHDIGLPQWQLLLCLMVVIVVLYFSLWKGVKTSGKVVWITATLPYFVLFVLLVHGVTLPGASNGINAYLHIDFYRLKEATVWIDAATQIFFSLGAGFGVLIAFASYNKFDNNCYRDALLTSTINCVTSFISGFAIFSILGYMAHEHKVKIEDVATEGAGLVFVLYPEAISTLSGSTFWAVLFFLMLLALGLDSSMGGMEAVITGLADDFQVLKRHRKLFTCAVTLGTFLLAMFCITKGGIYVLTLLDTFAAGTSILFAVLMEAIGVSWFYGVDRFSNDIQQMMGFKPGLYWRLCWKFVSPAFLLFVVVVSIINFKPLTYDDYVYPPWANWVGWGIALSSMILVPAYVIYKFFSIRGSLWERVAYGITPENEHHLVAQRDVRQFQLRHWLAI
T2 sequence (P23977 whole entry): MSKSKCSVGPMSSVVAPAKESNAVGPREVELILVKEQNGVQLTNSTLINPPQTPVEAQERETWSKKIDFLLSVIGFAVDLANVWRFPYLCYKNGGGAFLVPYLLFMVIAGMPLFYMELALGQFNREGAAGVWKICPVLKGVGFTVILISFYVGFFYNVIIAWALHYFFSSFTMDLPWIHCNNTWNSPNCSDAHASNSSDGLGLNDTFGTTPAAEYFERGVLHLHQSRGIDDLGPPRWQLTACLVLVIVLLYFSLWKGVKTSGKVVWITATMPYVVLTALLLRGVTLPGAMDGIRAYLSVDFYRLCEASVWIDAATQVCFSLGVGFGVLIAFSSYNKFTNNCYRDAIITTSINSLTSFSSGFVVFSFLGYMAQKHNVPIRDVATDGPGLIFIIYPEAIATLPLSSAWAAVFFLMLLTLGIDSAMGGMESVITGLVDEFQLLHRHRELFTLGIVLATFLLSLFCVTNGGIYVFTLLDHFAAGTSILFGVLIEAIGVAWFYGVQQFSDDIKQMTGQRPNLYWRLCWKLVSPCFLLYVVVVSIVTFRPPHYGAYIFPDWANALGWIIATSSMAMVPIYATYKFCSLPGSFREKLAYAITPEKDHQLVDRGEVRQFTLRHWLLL

| SMILES | IC50 [1] [nM] | Recapture de (³H)DA nH (nombre de Hill) [2] | IC50 [2] [nM] | Recapture de la dopamine, result in words ([2]; cultured neurons) |
| --- | --- | --- | --- | --- |
| c1ccc2sc(C3(N4CCCCC4)CCCCC3)cc2c1 [BTCP, (benzo(b)thiophényl-2)-1 (pipéridino -1) cyclohexane, reference compound] | 18.3 | – | – | – |
| OC1CCN(C2(c3cc4ccccc4s3)CCCCC2)CC1 [composé 26, (benzo(b)thiophényl-2)-1( (ol-4-pipéridino)-1)-1 cyclohexane] | – | 1,09 | 17 | – |
| CC1CCCN(C2(c3cc4ccccc4s3)CCCCC2)C1 (centres unmarked) [composé n^o 2, (benzo(b)thiophényl-2)-1 ((méthyl-3 pipéridino)-1)-1 cyclohexane] | 40 ± 0.5 | 0,95 | 70 | – |
| c1ccc2oc(C3(N4CCCCC4)CCCCC3)cc2c1 [composé n^o 4, (benzo(b)furannyl-2)-1 (pipéridino-1)-1 cyclohexane] | 22.2 | – | – | – |
| CC1CC(C)CN(C2(c3cc4ccccc4s3)CCCCC2)C1 (centres unmarked) [composé n^o 6, (benzo(b)thiophényl-2)-1 ((diméthyl-3,5 pipéridino)-1)-1 cyclohexane] | 12.5 | 0,95 | 1.47 | inhibiteur très puissant |
| BrCC1CCCN(C2(c3cc4ccccc4s3)CCCCC2)C1 (centres unmarked) [composé n^o 10, (benzo(b)thiophényl-2)-1 ((bromométhyl-3 pipéridino)-1)-1 cyclohexane] | 196 ± 31 | – | – | – |
| C[C@H]1CC[C@](c2cc3ccccc3s2)(N2CCCCC2)CC1 [composé n^o 20, (benzo(b)thiophényl-2)-1-t-méthyl-4-r-(pipéridino-1)-1 cyclohexane] | 94.3 | – | – | – |
| C[C@H]1CC[C@@](c2cc3ccccc3s2)(N2CCCCC2)CC1 [composé n^o 21, (benzo(b)thiophényl-2)-1 c-méthyl-4-r-(pipéridino-1)-1 cyclohexane] | 16.5 | 1,07 | 8 | – |
| CCCN(CCC)C1(c2cc3ccccc3s2)CCCCC1 [composé no 3, (benzo(b)thiophényl-2)-1 (dipropylamino-1)-1 cyclohexane] | 22.7 | – | – | – |
